System: bovine nasal cartilage
Assay: Bovine nasal cartilage assay: inhibition of IL-1β-induced proteoglycan loss (chondroitin sulfate by 1,9 DMB)
Format: cell-based
Conditions: Bos taurus; concentration preventing 50% of proteoglycan loss; IL-1β-stimulated cartilage plugs
Experimental: The BNC (bovine nasal cartilage) assay provides a model for evaluating chrondroprotective compounds that block cartilage degradation through inhibition of enzyme activity or by altering the gene expression of the matrix metalloproteinases such as stromelysin.
The assay is accomplished in two phases. The cartilage plugs are first incubated with IL-1β in the presence of the compounds of the present method. The amount of proteoglycan released is then quantified by measuring chondroitin sulfate present in the media using the 1,9-Dimethylmethylene Blue Assay (1,9 DMB).
Bovine nasal septum is dissected free of surrounding tissue and wiped with 70% alcohol. A sterile cork borer is used to remove 5-mm cartilage disks of 2- to 3-mm thickness. Explants are equilibrated for 96 hours in F-12 supplemented with 10% fetal calf serum (FCS) and antibiotics at 37° C. in a humidified atmosphere of 95% air and 5% CO2. Explants are then rinsed with 1 mL F-12 Nutrient Mixture (without phenol red) in order to remove traces of FCS. Each treatment group is done in triplicate allowing: controls (500 μL F-12 medium +110 μL PBS with 0.1% BSA +7 μL DMSO); IL-1β (500 μL F-12 medium without phenol red +100 μL IL-1β (500 U) +7 μL DMSO +10 μL PBS with 0.1% BSA); and dose responses (10, 1, and 0.1 μM) (F-12 medium without phenol red +100 μL IL-1β (500 U) +7 μL compound dissolved in DMSO +10 μL PBS with 0.1% BSA), to be tested per each 24-well plate. The cartilage plugs are incubated in the presence of conditioned media (IL-1β+compound) for 48 hours. Fresh unconditioned media (no IL-1β or compound) is added and incubated for an additional 24 hours. Both the conditioned and unconditioned media are collected and saved for analysis using the 1,9 DMB assay.
The ability of a compound to inhibit proteoglycan released from the cartilage plugs is quantified by measuring chondroitin sulfate. This is done using the calorimetric 1,9 DMB assay. Depending on the amount of chondroitin sulfate present in the media a color change will occur turning the normally deep blue dye, vivid pink. This color change is measured using a Titertek Multiscan MCC 340 plate reader at 540 nm. A Cetus Pro/Pette is used to speed dilution and pipetting steps. The Cetus uses Sarstedt vials, designed for radioimmune assays, which have been inserted into Sarstedt 96-vial aluminum racks. The first row of 12 slots is left empty in order to accommodate the chondroitin sulfate standards (0.01-0.32 μg/mL shark chondroitin sulfate in 0.1 M phosphate buffer, pH 7.0, containing 0.01 M L-cysteine HCl and 0.05 M EDTA). It is necessary to dilute (1:5, 1:10) the medium before a […] is performed by adding 10 μL of collected media to 290 μL DMF (16 mg dye/1 L of 0.1 M formate buffer, pH 3.5, containing 5 mL ethanol) and reading at […]. Dilutions are performed on both the 48-hour and 72-hour media samples collected and saved earlier. Once the experiment has been completed, in order to determine the total amount of proteoglycan remaining in the plugs, they are subjected to papain digestion. Cartilage explants are digested in 20-mL glass scintillation vials by adding 50 μL papain in 1.0 mL cysteine buffer (0.01 M phosphate buffer, pH 7.0 containing 0.01 M L-cysteine HCl and 0.05 M EDTA). Digested material is diluted (1:60) and chondroitin sulfate values determined using the 1,9 DMB assay.
Determination of chondroitin sulfate in each sample is accomplished by subtracting the constant value determined from the linear regression performed on the standard curve, from the O.D. value for a particular well, and then dividing by the X coefficient calculated from the linear regression done on the standard curve. Each experimental well is split into two samples for determining chondroitin sulfate values, then the two are averaged. […]

Compound	IC50
CCOC(=O)N(O)C(C)c1cccc(Nc2ccccc2-c2n[nH]c(=S)o2)c1Cl (stereo not drawn) [Compound 13, Carbamic acid, [1-[2-chloro-3-[[2-(4,5-dihydro-5-thioxo-1,3,4-oxadiazol-2-yl)phenyl]amino]phenyl]ethyl]hydroxy-, ethyl ester]	5.3 µM
Cc1ccc(Cl)c(Nc2ccccc2C=C2SC(=O)NC2=O)c1Cl [Compound 15, 5-[2-(2,6-Dichloro-3-methyl-phenylamino)-benzylidene]-thiazolidine-2,4-dione]	4.5 µM
Cc1cccc(Nc2ccccc2-c2n[nH]c(=S)o2)c1C [Compound 3, 5-[2-(2,3-Dimethyl-phenylamino)-phenyl]-3H-[1,3,4]oxadiazole-2-thione]	31 µM
CC(O)c1cccc(Nc2ccccc2-c2n[nH]c(=S)o2)c1Cl (stereo not drawn) [Compound 10, 5-{2-[2-Chloro-3-(1-hydroxy-ethyl)-phenylamino]-phenyl}-3H-[1,3,4]oxadiazole-2-thione]	18.9 µM
CC(C)(C)c1cc(Nc2ccccc2-c2n[nH]c(=S)o2)cc(C(C)(C)C)c1O [Compound 9, 5-[2-(3,5-Di-tert-butyl-4-hydroxy-phenylamino)-phenyl]-3H-[1,3,4]oxadiazole-2-thione]	23.2 µM
Cc1ccc(Cl)c(Nc2ccccc2C=C2SC(=S)NC2=O)c1Cl [Compound 11, 5-[2-(2,6-Dichloro-3-methyl-phenylamino)-benzylidene]-2-thioxo-thiazolidin-4-one]	1.3 µM
Cc1ccc(Cl)c(Nc2ccccc2-c2n[nH]c(=S)o2)c1Cl [Compound 4, 5-[2-(2,6-Dichloro-3-methyl-phenylamino)-phenyl]-3H-[1,3,4]oxadiazole-2-thione]	26.8 µM
Cc1ccc(Cl)c(Nc2ccccc2C(=O)NNC(N)=S)c1Cl [Compound 6, 2-[(2,6-dichloro-3-methylphenyl)amino]-,2-(aminothioxomethyl)hydrazide]	1.3 µM
Cc1ccc(Cl)c(Nc2ccccc2-c2nnc(NC#N)s2)c1Cl [Compound 12, Cyanamide, [5-[2-[(2,6-dichloro-3-methylphenyl)amino]phenyl]-1,3,4-thiadiazol-2-yl]-]	6.4 µM
Cc1ccc(Cl)c(Nc2ccccc2-c2n[nH]c(=S)[nH]2)c1Cl [Compound 5, 5-[2-(2,6-Dichloro-3-methyl-phenylamino)-phenyl]-2,4-dihydro-[1,2,4]triazole-3-thione]	9.9 µM
CNC(=O)N(O)C(C)c1cccc(Nc2ccccc2-c2n[nH]c(=S)o2)c1Cl (stereo not drawn) [Compound 16, Urea, N-[1-[2-chloro-3-[[(4,5-dihydro-5-thioxo-1,3,4-oxadiazol-2-yl)phenyl]amino]phenyl]ethyl]-N-hydroxy-N'-methyl-]	1.4 µM
Cc1ccc(Cl)c(Nc2ccccc2-c2nsc(NC#N)n2)c1Cl [Compound 18, Cyanamide, [3-[2-[(2,6-dichloro-3-methylphenyi)amino]phenyl]-1,2,4-thiadiazol-5-yl]-]	0.3 µM
Cc1ccc(Cl)c(Nc2ccccc2-c2n[nH]c(=S)n2C)c1Cl [Compound 8, 5-[2-(2,6-Dichloro-3-methyl-phenylamino)-phenyl]-4-methyl-2,4-dihydro-[1,2,4]triazole-3-thione]	4.9 µM
Cc1ccc(Cl)c(Nc2ccccc2/C=C2\SC(NC#N)=NC2=O)c1Cl [Compound 17, Cyanamide, [5-[[2-[(2,6-dichloro-3-methylphenyl)amino]phenyl]methylene]-4,5-dihydro-4-oxo-2-thiazolyl]-, (Z)-]	0.8 µM
O=c1[nH]nc(-c2ccccc2Nc2ccccc2)o1 [Compound 2, 5-(2-Phenylamino-phenyl)-3H-[1,3,4]oxadiazol-2-one]	40.8 µM

System: 92 kDa gelatinase
Assay: Gelatin zymography of bovine nasal cartilage conditioned media: expression of 92 kDa gelatinase
Format: cell-based
Conditions: various concentrations, IL-1β-induced, FIG. 1
Experimental: (§1) To evaluate the effects of the compounds of the present invention on the expression of 72 kDa and 92 kDa gelatinases, samples obtained from the bovine nasal cartilage study (described above) were subjected to gelatin zymography.
(§2) Separating gels (8%) were made by combining 400 μL gelatin (25 mg/mL) with: 2.5 mL Tris (1.5 M); 100 μL SDS (10%); 2.6 mL acrylamide (30%); 10 μL TEMED; 4.6 mL dH2 O; 100 μL ammonium persulfate (10%). Stacking gels (4.5%) were formed by combining: 2.5 mL Tris (0.5 M); 100 μL SDS (10%); 1.5 mL acrylamide (30%); 10 μL TEMED; 5.8 mL dH2 O; 100 μL ammonium persulfate (10%).
(§3) Bovine nasal cartilage conditioned media was diluted (1:15) using sample buffer 1X (2% SDS, 15% glycerol, 0.01% bromophenol blue, 0.25M Trizma Base, pH 6.8). Thirty microliters of each of the diluted samples and molecular weight standards were subjected to electrophoresis at 4° C. under constant current conditions (20 mA of current/gel) using Tris/Glycine running buffer (0.5 M Trizma Base, pH 8.8 using glycine, 1% SDS) that was diluted 1:20 before use.
After completion of the electrophoretic procedure, the gel was first washed twice for 15 minutes in 2.5% Triton X-100. The gel was then rinsed with the gel incubation buffer (0.05 M Tris, pH 8.2, 0.005 M CaCl2, 0.5 μM ZnCl2) and incubated overnight in this buffer at 37° C. After the incubation period, the gel was stained for 30 minutes in 0.125% Coomassie and destained using 10% methanol/5% acetic acid destaining solution.

Compound	inhibiting expression of IL-1β-induced 92 kDa gelatinase
Cc1ccc(Cl)c(Nc2ccccc2C=C2SC(=S)NC2=O)c1Cl [Compound 11, 5-[2-(2,6-Dichloro-3-methyl-phenylamino)-benzylidene]-2-thioxo-thiazolidin-4-one]	effective in inhibiting expression of IL-1β-induced 92 kDa gelatinase in a dose-dependent manner

Same assay, conditions: versus 72 kDa gelatinase

Compound	specificity of effects (92 kDa versus 72 kDa gelatinase)
Cc1ccc(Cl)c(Nc2ccccc2C=C2SC(=S)NC2=O)c1Cl [Compound 11, 5-[2-(2,6-Dichloro-3-methyl-phenylamino)-benzylidene]-2-thioxo-thiazolidin-4-one]	specific to 92 kDa

System: 72 kDa gelatinase
Assay: Gelatin zymography of bovine nasal cartilage conditioned media: expression of 72 kDa gelatinase
Format: cell-based
Conditions: various concentrations, FIG. 1
Experimental: as §1, §2, §3
After completion of the electrophoretic procedure, the gel was first washed twice for 15 minutes in 2.5% Triton X-100. The gel was then rinsed with the gel incubation buffer (0.05 M Tris, pH 8.2, 0.005 M CaCl2, 0.5 μM ZnCl2) and incubated overnight in this buffer at 37° C. […]

Compound	effect on expression of 72 kDa gelatinase
Cc1ccc(Cl)c(Nc2ccccc2C=C2SC(=S)NC2=O)c1Cl [Compound 11, 5-[2-(2,6-Dichloro-3-methyl-phenylamino)-benzylidene]-2-thioxo-thiazolidin-4-one]	no effect on expression of 72 kDa gelatinase

From patent US6211209A, “Method of inhibiting connective tissue degradation” (Warner-Lambert Company, priority 1998, dated 2001)
